From patent EP0327492A1, “Herbicidally and plantgrowth regulatory active quinoline and pyrindine compounds” (CIBA-GEIGY AG, priority 1988, dated 1989)

Columns and labels:
Format in all cases: in vivo
[1] = test system: Sorghum halep.; test: Post-emergent herbicidal action, contact herbicide (B.3); conditions: 500 bis 2000 [g/ha], 15 days after treatment
In short: (§1)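 Read-out is a visual 1-9 damage score taken 15 days after spraying, where 1 means the plant died and 9 means unaffected growth. Plants were treated at the 4- to 6-leaf stage with 2000-500 g active substance per hectare as an aqueous dispersion and kept at 24-26 °C and 45-60% humidity.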

[2] = test system: Avena fatua; test: as above; conditions: 500 bis 2000 [g/ha], 15 days after treatment
In short: as §1

[3] = test system: Stellaria; test: as above; conditions: 500 bis 2000 [g/ha], 15 days after treatment
In short: as §1

[4] = test system: Solanum nigrum; test: as above; conditions: 500 bis 2000 [g/ha], 15 days after treatment
In short: as §1

[5] = test system: Digitaria sang.; test: as above; conditions: 500 bis 2000 [g/ha], 15 days after treatment
In short: as §1

[6] = test system: Chenopodium Sp.; test: as above; conditions: 500 bis 2000 [g/ha], 15 days after treatment
In short: as §1

[7] = test system: Chrysanthe. leuc.; test: as above; conditions: 500 bis 2000 [g/ha], 15 days after treatment
In short: as §1

[8] = test system: Echinochloa crus galli; test: as above; conditions: 500 bis 2000 [g/ha], 15 days after treatment
In short: as §1

[9] = test system: Amaranthus ret.; test: as above; conditions: 500 bis 2000 [g/ha], 15 days after treatment
In short: as §1

[10] = test system: Bromus tectorum; test: as above; conditions: 500 bis 2000 [g/ha], 15 days after treatment
In short: as §1

[11] = test system: Galium aparine; test: as above; conditions: 500 bis 2000 [g/ha], 15 days after treatment
In short: as §1

[12] = test system: Veronica Sp.; test: as above; conditions: 500 bis 2000 [g/ha], 15 days after treatment
In short: as §1

[13] = test system: Alopecurus myos.; test: as above; conditions: 500 bis 2000 [g/ha], 15 days after treatment
In short: as §1

[14] = test system: Xanthium Sp.; test: as above; conditions: 500 bis 2000 [g/ha], 15 days after treatment
In short: as §1

[15] = test system: Sinapis; test: as above; conditions: 500 bis 2000 [g/ha], 15 days after treatment
In short: as §1

[16] = test system: Abutilon; test: as above; conditions: 500 bis 2000 [g/ha], 15 days after treatment
In short: as §1

[17] = test system: Lolium perenne; test: as above; conditions: 500 bis 2000 [g/ha], 15 days after treatment
In short: as §1

[18] = test system: Soja; test: Post-emergent herbicidal action (B.3), crop tolerance; conditions: 500 bis 2000 [g/ha], 15 days after treatment
Experimental: (§2) Im Gewächshaus wird unmittelbar nach der Einsaat der Versuchspflanzen in Saatschalen die Erdoberfläche mit einer wässrigen Dispersion der Wirkstoffe, erhalten aus einem 25 %igen Emulsionskonzentrat behandelt. Es werden Konzentrationen von 2000-500 g Wirksubstanz/Hektar angewendet. Die Saatschalen werden im Gewächshaus bei 22-25° C und 50-70 % relativer Luftfeuchtigkeit gehalten und der Versuch nach 3 Wochen ausgewertet und die Resultate nach folgender Notenskala ausgewertet. • 1 Pflanze hat nicht gekeimt oder ist eingegangen • 2-3 sehr starke Schäden • 4 starke Schäden • 5 mittlere Schäden, die Pflanzen sind verkümmert • 6 Schäden, die Pflanze kann regenerieren • 7-8 leichte Schäden • 9 normales Wachstum, wie das unbehandelter Pflanzen
(§3) Boniturnoten von 1 bis 4 (insbesondere von 1 bis 3) weisen auf eine gute bis sehr gute Herbizidwirkung hin. Boniturnoten von 6 bis 9 (insbesondere 7 bis 9) weisen auf eine gute Toleranz (insbesondere bei Kulturpflanzen) hin.
(§4) Eine Anzahl Unkräuter, sowohl monokotyle wie dikotyle, werden nach dem Auflaufen (im 4- bis 6-Blattstadium) mit einer wässrigen Wirkstoffdispersion in einer Dosierung von 2000-500 g Wirksubstanz pro Hektar auf die Pflanzen gespritzt und diese bei 24°-26°C und 45-60 % relativer Luftfeuchtigkeit gehalten. 15 Tage nach der Behandlung wird der Versuch nach dem in Beispiel B.2. gegebenen Massstab bewertet.

[19] = test system: Baumwolle; test: as above; conditions: 500 bis 2000 [g/ha], 15 days after treatment
Experimental: as §2, §3, §4

[20] = test system: Sorghum halep.; test: Pre-emergent herbicidal action (B.2); conditions: 500 bis 2000 [g/ha], evaluated after 3 weeks
Experimental: as §2, §3

[21] = test system: Avena fatua; test: Pre-emergent herbicidal action (B.2); conditions: 500 bis 2000 [g/ha], evaluated after 3 weeks
Experimental: as §2, §3

[22] = test system: Stellaria; test: Pre-emergent herbicidal action (B.2); conditions: 500 bis 2000 [g/ha], evaluated after 3 weeks
Experimental: as §2, §3

[23] = test system: Solanum nigrum; test: Pre-emergent herbicidal action (B.2); conditions: 500 bis 2000 [g/ha], evaluated after 3 weeks
Experimental: as §2, §3

[24] = test system: Digitaria sang.; test: Pre-emergent herbicidal action (B.2); conditions: 500 bis 2000 [g/ha], evaluated after 3 weeks
Experimental: as §2, §3

[25] = test system: Chenopodium Sp.; test: Pre-emergent herbicidal action (B.2); conditions: 500 bis 2000 [g/ha], evaluated after 3 weeks
Experimental: as §2, §3

[26] = test system: Chrysanthe. leuc.; test: Pre-emergent herbicidal action (B.2); conditions: 500 bis 2000 [g/ha], evaluated after 3 weeks
Experimental: as §2, §3

[27] = test system: Echinochloa crus galli; test: Pre-emergent herbicidal action (B.2); conditions: 500 bis 2000 [g/ha], evaluated after 3 weeks
Experimental: as §2, §3

[28] = test system: Amaranthus ret.; test: Pre-emergent herbicidal action (B.2); conditions: 500 bis 2000 [g/ha], evaluated after 3 weeks
Experimental: as §2, §3

[29] = test system: Bromus tectorum; test: Pre-emergent herbicidal action (B.2); conditions: 500 bis 2000 [g/ha], evaluated after 3 weeks
Experimental: as §2, §3

[30] = test system: Galium aparine; test: Pre-emergent herbicidal action (B.2); conditions: 500 bis 2000 [g/ha], evaluated after 3 weeks
Experimental: as §2, §3

[31] = test system: Veronica Sp.; test: Pre-emergent herbicidal action (B.2); conditions: 500 bis 2000 [g/ha], evaluated after 3 weeks
Experimental: as §2, §3

[32] = test system: Alopecurus myos.; test: Pre-emergent herbicidal action (B.2); conditions: 500 bis 2000 [g/ha], evaluated after 3 weeks
Experimental: as §2, §3

[33] = test system: Sinapis; test: Pre-emergent herbicidal action (B.2); conditions: 500 bis 2000 [g/ha], evaluated after 3 weeks
Experimental: as §2, §3

[34] = test system: Ipomoea; test: Pre-emergent herbicidal action (B.2); conditions: 500 bis 2000 [g/ha], evaluated after 3 weeks
Experimental: as §2, §3

[35] = test system: Abutilon; test: Pre-emergent herbicidal action (B.2); conditions: 500 bis 2000 [g/ha], evaluated after 3 weeks
Experimental: as §2, §3

[36] = test system: Lolium perenne; test: Pre-emergent herbicidal action (B.2); conditions: 500 bis 2000 [g/ha], evaluated after 3 weeks
Experimental: as §2, §3

[37] = test system: Soja; test: Pre-emergent herbicidal action (B.2), crop tolerance; conditions: 500 bis 2000 [g/ha], evaluated after 3 weeks
Experimental: as §2, §3

Q: How did the Herbizidwirkung [1] turn out when `CC1CCc2nc(C3=NC(=O)C(C)(C(C)C)N3)c(C(=O)O)cc2C1` (stereo not shown) [Verbindung 2.01, 2-(5-Isopropyl-5-methyl-1H-imidazol-4-on-2-yl)-6-methyl-5,6,7,8-tetrahydrochinolin-3-carbonsäure] was run?
A: gute bis sehr gute Herbizidwirkung (Boniturnoten von 1 bis 4 (insbesondere von 1 bis 3) weisen auf eine gute bis sehr gute Herbizidwirkung hin)

Q: And the Herbizidwirkung [2]?
A: gute bis sehr gute Herbizidwirkung (Boniturnoten von 1 bis 4 (insbesondere von 1 bis 3) weisen auf eine gute bis sehr gute Herbizidwirkung hin)

Q: And the Herbizidwirkung [3]?
A: gute bis sehr gute Herbizidwirkung (Boniturnoten von 1 bis 4 (insbesondere von 1 bis 3) weisen auf eine gute bis sehr gute Herbizidwirkung hin)

Q: What about the Herbizidwirkung [4] of the same compound?
A: gute bis sehr gute Herbizidwirkung (Boniturnoten von 1 bis 4 (insbesondere von 1 bis 3) weisen auf eine gute bis sehr gute Herbizidwirkung hin)

Q: And the Herbizidwirkung [5]?
A: gute bis sehr gute Herbizidwirkung (Boniturnoten von 1 bis 4 (insbesondere von 1 bis 3) weisen auf eine gute bis sehr gute Herbizidwirkung hin)

Q: What about the Herbizidwirkung [6] of the same compound?
A: gute bis sehr gute Herbizidwirkung (Boniturnoten von 1 bis 4 (insbesondere von 1 bis 3) weisen auf eine gute bis sehr gute Herbizidwirkung hin)

Q: And the Herbizidwirkung [7]?
A: gute bis sehr gute Herbizidwirkung (Boniturnoten von 1 bis 4 (insbesondere von 1 bis 3) weisen auf eine gute bis sehr gute Herbizidwirkung hin)

Q: What about the Herbizidwirkung [8] of the same compound?
A: gute bis sehr gute Herbizidwirkung (Boniturnoten von 1 bis 4 (insbesondere von 1 bis 3) weisen auf eine gute bis sehr gute Herbizidwirkung hin)

Q: And the Herbizidwirkung [9]?
A: gute bis sehr gute Herbizidwirkung (Boniturnoten von 1 bis 4 (insbesondere von 1 bis 3) weisen auf eine gute bis sehr gute Herbizidwirkung hin)

Q: What about the Herbizidwirkung [10] of the same compound?
A: gute bis sehr gute Herbizidwirkung (Boniturnoten von 1 bis 4 (insbesondere von 1 bis 3) weisen auf eine gute bis sehr gute Herbizidwirkung hin)

Q: What about the Herbizidwirkung [11] of the same compound?
A: gute bis sehr gute Herbizidwirkung (Boniturnoten von 1 bis 4 (insbesondere von 1 bis 3) weisen auf eine gute bis sehr gute Herbizidwirkung hin)

Q: And the Herbizidwirkung [12]?
A: gute bis sehr gute Herbizidwirkung (Boniturnoten von 1 bis 4 (insbesondere von 1 bis 3) weisen auf eine gute bis sehr gute Herbizidwirkung hin)

Q: What about the Herbizidwirkung [13] of the same compound?
A: gute bis sehr gute Herbizidwirkung (Boniturnoten von 1 bis 4 (insbesondere von 1 bis 3) weisen auf eine gute bis sehr gute Herbizidwirkung hin)

Q: And the Herbizidwirkung [14]?
A: gute bis sehr gute Herbizidwirkung (Boniturnoten von 1 bis 4 (insbesondere von 1 bis 3) weisen auf eine gute bis sehr gute Herbizidwirkung hin)

Q: What about the Herbizidwirkung [15] of the same compound?
A: gute bis sehr gute Herbizidwirkung (Boniturnoten von 1 bis 4 (insbesondere von 1 bis 3) weisen auf eine gute bis sehr gute Herbizidwirkung hin)

Q: What about the Herbizidwirkung [16] of the same compound?
A: gute bis sehr gute Herbizidwirkung (Boniturnoten von 1 bis 4 (insbesondere von 1 bis 3) weisen auf eine gute bis sehr gute Herbizidwirkung hin)

Q: And the Herbizidwirkung [17]?
A: gute bis sehr gute Herbizidwirkung (Boniturnoten von 1 bis 4 (insbesondere von 1 bis 3) weisen auf eine gute bis sehr gute Herbizidwirkung hin)

Q: What about the “Toleranz (im Wachstum beeinflusst)” value [18] of the same compound?
A: gute Toleranz (Boniturnoten von 6 bis 9 (insbesondere 7 bis 9) weisen auf eine gute Toleranz (insbesondere bei Kulturpflanzen) hin)

Q: What about the “Toleranz (im Wachstum beeinflusst)” value [19] of the same compound?
A: gute Toleranz (Boniturnoten von 6 bis 9 (insbesondere 7 bis 9) weisen auf eine gute Toleranz (insbesondere bei Kulturpflanzen) hin)

Q: And the Herbizidwirkung [20]?
A: gute bis sehr gute Herbizidwirkung (Boniturnoten von 1 bis 4 (insbesondere von 1 bis 3) weisen auf eine gute bis sehr gute Herbizidwirkung hin)

Q: What about the Herbizidwirkung [21] of the same compound?
A: gute bis sehr gute Herbizidwirkung (Boniturnoten von 1 bis 4 (insbesondere von 1 bis 3) weisen auf eine gute bis sehr gute Herbizidwirkung hin)

Q: What about the Herbizidwirkung [22] of the same compound?
A: gute bis sehr gute Herbizidwirkung (Boniturnoten von 1 bis 4 (insbesondere von 1 bis 3) weisen auf eine gute bis sehr gute Herbizidwirkung hin)

Q: And the Herbizidwirkung [23]?
A: gute bis sehr gute Herbizidwirkung (Boniturnoten von 1 bis 4 (insbesondere von 1 bis 3) weisen auf eine gute bis sehr gute Herbizidwirkung hin)

Q: What about the Herbizidwirkung [24] of the same compound?
A: gute bis sehr gute Herbizidwirkung (Boniturnoten von 1 bis 4 (insbesondere von 1 bis 3) weisen auf eine gute bis sehr gute Herbizidwirkung hin)

Q: What about the Herbizidwirkung [25] of the same compound?
A: gute bis sehr gute Herbizidwirkung (Boniturnoten von 1 bis 4 (insbesondere von 1 bis 3) weisen auf eine gute bis sehr gute Herbizidwirkung hin)

Q: What about the Herbizidwirkung [26] of the same compound?
A: gute bis sehr gute Herbizidwirkung (Boniturnoten von 1 bis 4 (insbesondere von 1 bis 3) weisen auf eine gute bis sehr gute Herbizidwirkung hin)

Q: What about the Herbizidwirkung [27] of the same compound?
A: gute bis sehr gute Herbizidwirkung (Boniturnoten von 1 bis 4 (insbesondere von 1 bis 3) weisen auf eine gute bis sehr gute Herbizidwirkung hin)

Q: And the Herbizidwirkung [28]?
A: gute bis sehr gute Herbizidwirkung (Boniturnoten von 1 bis 4 (insbesondere von 1 bis 3) weisen auf eine gute bis sehr gute Herbizidwirkung hin)

Q: What about the Herbizidwirkung [29] of the same compound?
A: gute bis sehr gute Herbizidwirkung (Boniturnoten von 1 bis 4 (insbesondere von 1 bis 3) weisen auf eine gute bis sehr gute Herbizidwirkung hin)

Q: What about the Herbizidwirkung [30] of the same compound?
A: gute bis sehr gute Herbizidwirkung (Boniturnoten von 1 bis 4 (insbesondere von 1 bis 3) weisen auf eine gute bis sehr gute Herbizidwirkung hin)

Q: And the Herbizidwirkung [31]?
A: gute bis sehr gute Herbizidwirkung (Boniturnoten von 1 bis 4 (insbesondere von 1 bis 3) weisen auf eine gute bis sehr gute Herbizidwirkung hin)

Q: What about the Herbizidwirkung [32] of the same compound?
A: gute bis sehr gute Herbizidwirkung (Boniturnoten von 1 bis 4 (insbesondere von 1 bis 3) weisen auf eine gute bis sehr gute Herbizidwirkung hin)

Q: What about the Herbizidwirkung [33] of the same compound?
A: gute bis sehr gute Herbizidwirkung (Boniturnoten von 1 bis 4 (insbesondere von 1 bis 3) weisen auf eine gute bis sehr gute Herbizidwirkung hin)

Q: And the Herbizidwirkung [34]?
A: gute bis sehr gute Herbizidwirkung (Boniturnoten von 1 bis 4 (insbesondere von 1 bis 3) weisen auf eine gute bis sehr gute Herbizidwirkung hin)

Q: And the Herbizidwirkung [35]?
A: gute bis sehr gute Herbizidwirkung (Boniturnoten von 1 bis 4 (insbesondere von 1 bis 3) weisen auf eine gute bis sehr gute Herbizidwirkung hin)

Q: And the Herbizidwirkung [36]?
A: gute bis sehr gute Herbizidwirkung (Boniturnoten von 1 bis 4 (insbesondere von 1 bis 3) weisen auf eine gute bis sehr gute Herbizidwirkung hin)

Q: What about the “Toleranz (im Wachstum beeinflusst)” value [37] of the same compound?
A: gute Toleranz (Boniturnoten von 6 bis 9 (insbesondere 7 bis 9) weisen auf eine gute Toleranz (insbesondere bei Kulturpflanzen) hin)
